Measurements published in patent EP1157985A1 (G.D. SEARLE & CO., priority 1996, dated 1997).
Where a name gives a salt, the structure may show the parent alone. Read-outs that look alike come from different tables or passages of the source.

Assays:
[1] = molecular target: T1, Human fibrinogen receptor (αIIbβ3) (Homo sapiens, UniProt P05106+P08514); assay: Purified IIb/IIIa receptor assay (solid phase receptor assay, competition with biotinylated vitronectin); assay type: binding; details: purified receptor from outdated platelets; 1 nM biotinylated vitronectin; highest concentration tested 1.0 x 10^-4 M
T1 construct: Human fibrinogen receptor (αIIbβ3) was purified from outdated platelets; from tissue; host or cells: outdated (human) platelets
Excerpt: PURIFIED IIb/IIIa RECEPTOR ASSAY
Human fibrinogen receptor (αIIbβ3) was purified from outdated platelets. (Pytela, R., Pierschbacher, M.D., Argraves, S., Suzuki, S., and Rouslahti, E. "Arginine-Glycine-Aspartic acid adhesion receptors", Methods in Enzymology 144(1987):475-489.) Human vitronectin was purified from fresh frozen plasma as described in Yatohgo, T., Izumi, M., Kashiwagi, H., and Hayashi, M., "Novel purification of vitronectin from human plasma by heparin affinity chromatography," Cell Structure and Function 13(1988):281-292. Biotinylated human vitronectin was prepared by coupling NHS-biotin from Pierce Chemical Company (Rockford, IL) to purified vitronectin as previously described. (Charo, I.F., Nannizzi, L., Phillips, D.R., Hsu, M.A., Scarborough, R.M., "Inhibition of fibrinogen binding to GP IIb/IIIa by a GP IIIa peptide", J. Biol. Chem. 266(3)(1991): 1415-1421.) Assay buffer, OPD substrate tablets, and RIA grade BSA were obtained from Sigma (St. Louis, MO). Anti-biotin antibody was obtained from Calbiochem (La Jolla, CA). Linbro microtiter plates were obtained from Flow Labs (McLean, VA). ADP reagent was obtained from Sigma (St. Louis, MO).
This assay is essentially the same reported in Niiya, K., Hodson, E., Bader, R., Byers-Ward, V. Koziol, J.A., Plow, E.F. and Ruggeri, Z.M., "Increased surface expression of the membrane glycoprotein IIb/IIIa complex induced by platelet activation: Relationships to the binding of fibrinogen and platelet aggregation", Blood 70(1987):475-483. The purified human fibrinogen receptor (αIIbβ3) was diluted from stock solutions to 1.0 µg/mL in Tris-buffered saline containing 1.0 mM Ca^++, Mg^++, and Mn^++, pH 7.4 (TBS^+++). The diluted receptor was immediately transferred to Linbro microtiter plates at 100 µL/well (100 ng receptor/well). The plates were sealed and incubated overnight at 4°C to allow the receptor to bind to the wells. All remaining steps were at room temperature. The assay plates were emptied and 200 µL of 1% RIA grade BSA in TBS^+++ (TBS^+++/BSA) were added to block exposed plastic surfaces. Following a 2 hour incubation, the assay plates were washed with TBS^+++ using a 96 well plate washer. Logarithmic serial dilution of the test compound and controls were made starting at a stock concentration of 2 mM and using 2 nM biotinylated vitronectin in TBS^+++/BSA as the diluent. This premixing of labeled ligand with test (or control) ligand, and subsequent transfer of 50 µL aliquots to the assay plate was carried out with a CETUS Propette robot; the final concentration of the labeled ligand was 1 nM and the highest concentration of test compound was 1.0 x 10^-4 M. The competition occurred for two hours after which all wells were washed with a plate washer as before. Affinity purified horseradish peroxidase labeled goat anti-biotin antibody was diluted 1:3000 in TBS^+++/BSA and 125 µL were added to each well. After 30 minutes, the plates were washed and incubated with […] substrate in 100 mM/L citrate buffer, pH 5.0. The plate was read with a microtiter plate reader at a wavelength of 450 nm and when the maximum-binding control wells reached an absorbance of about 1.0, the final A450 were recorded for analysis. The data were analyzed using a macro written for use with the EXCEL™ spreadsheet program. The mean, standard deviation, and %CV were determined for duplicate concentrations. The mean A450 values were normalized to the mean of four maximum-binding controls (no competitor added)(B-MAX). The normalized values were subjected to a four parameter curve fit algorithm, [Robard et al., Int. […]

[2] = molecular target: T2, Human vitronectin receptor (αvβ3) (Homo sapiens, UniProt P05106+P06756); assay: Vitronectin adhesion assay (solid phase receptor assay, competition with biotinylated vitronectin); assay type: binding
T2 construct: Human vitronectin receptor (αvβ3) was purified from human placenta; from tissue; host or cells: human placenta
Experimental: VITRONECTIN ADHESION ASSAY
Human vitronectin receptor (αvβ3) was purified from human placenta as previously described [Pytela et al., Methods in Enzymology, 144:475-489 (1987)]. Human vitronectin was purified from fresh frozen plasma as previously described [Yatohgo et al., Cell Structure and Function, 13:281-292 (1988)]. Biotinylated human vitronectin was prepared by coupling NHS-biotin from Pierce Chemical Company (Rockford, IL) to purified vitronectin as previously described [Charo et al., J. Biol. Chem., 266(3):1415-1421 (1991)]. Assay buffer, OPD substrate tablets, and RIA grade BSA were obtained from Sigma (St. Louis, MO). Anti-biotin antibody was obtained from Calbiochem (La Jolla, CA). Linbro microtiter plates were obtained from Flow Labs (McLean, VA). ADP reagent was obtained from Sigma (St. Louis, MO).
This assay was essentially the same as previously reported [Niiya et al., Blood, 70:475-483 (1987)]. The purified human vitronectin receptor (αvβ3) was diluted from stock solutions to 1.0 µg/mL in Tris-buffered saline containing 1.0 mM Ca^++, Mg^++, and Mn^++, pH 7.4 (TBS^+++). The diluted receptor was immediately transferred to Linbro microtiter plates at 100 µL/well (100 ng receptor/well). The plates were sealed and incubated overnight at 4°C to allow the receptor to bind to the wells. All remaining steps were at room temperature. The assay plates were emptied and 200 µL of 1% RIA grade BSA in TBS^+++ (TBS^+++/BSA) were added to block exposed plastic surfaces. Following a 2 hour incubation, the assay plates were washed with TBS^+++ using a 96 well plate washer. Logarithmic serial dilution of the test compound and controls were made starting at a stock concentration of 2 mM and using 2 nM biotinylated vitronectin in TBS^+++/BSA as the diluent. This premixing of labeled ligand with test (or control) ligand, and subsequent transfer of 50 µL aliquots to the assay plate was carried out with a CETUS Propette robot; the final concentration of the labeled ligand was 1 nM and the highest concentration of test compound was 1.0 x 10^-4 M. The competition occurred for two hours after which all wells were washed with a plate washer as before. Affinity purified horseradish peroxidase labeled goat anti-biotin antibody was diluted 1:3000 in TBS^+++/BSA and 125 µL were added to each well. After 30 minutes, the plates were washed and incubated with OPD/H2O2 substrate in 100 mM/L Citrate buffer, pH 5.0. The plate was read with a microtiter plate reader at a wavelength of 450 nm and when the maximum-binding control wells reached an absorbance of about 1.0, the final A450 were recorded for analysis. The data were analyzed using a macro written for use with the EXCEL™ spreadsheet program. The mean, standard deviation, and %CV were determined for duplicate concentrations. The mean A450 values were normalized to the mean of four maximum-binding controls (no competitor added)(B-MAX). The normalized values were subjected to a four parameter curve fit algorithm [Rodbard et al., Int.

[3] = purified receptor from human placenta, 1 nM biotinylated vitronectin, highest concentration tested 1.0 x 10^-4 M, read-out: AvB3 IC50

| Structure (SMILES) | IC50 [1] [nM] | IC50 [2, 3] [nM] | IC50 ([2]; read-out: AvB3 IC50, purified receptor from human placenta, 1 nM biotinylated vitronectin, highest concentration tested 1.0 x 10^-4 M) [nM] | IC50 [2] [nM] |
| --- | --- | --- | --- | --- |
| CC(C)OC(=O)NC(Cc1ccc(NC(=O)c2cccc(NC(N)=NC(N)=O)c2)cc1)C(=O)O (stereo not shown) [Example 105, 4-[[[3-[[amino[(aminocarbonyl)imino]methyl]-amino]phenyl]carbonyl]amino]-N-[(1-methylethoxy]carbonyl]phenylalanine, bis(trifluoroacetate) salt] | 267 | 2 |  |  |
| NC(N)=Nc1cccc(C(=O)Nc2ccc(CCC(=O)O)cc2)c1 [Example 64, 4-[[[3-[(aminoiminomethyl)amino]phenyl]carbonyl]amino]benzenepropanoic acid, hydrochloride] | 93.1 | 21.2 |  |  |
| CN(C)c1cc(NC(=O)c2cccc(NC(=N)N)c2)ccc1CCC(=O)O [Example 117, 4-[[[3-[(aminoiminomethyl)amino]phenyl]carbonyl]-amino]-2-(dimethylamino)benzenepropanoic acid, bis(trifluoroacetate) salt] | 452 | 129 |  |  |
| N=C(N)Nc1cccc(C(=O)Nc2ccc(CC(NC(=O)N3CCOCC3)C(=O)O)cc2)c1 (stereo not shown) [Example 125, 4-[[[3-[(aminoiminomethyl)amino]phenyl]carbonyl]-amino]-N-[(4-morpholinyl)carbonyl]phenylalanine, bis(trifluoroacetate) salt, monohydrate] | 260 | 7 |  |  |
| CC(C)CC(=O)N[C@@H](Cc1ccc(NC(=O)c2cc(NC3=NCCCN3)cc(C(F)(F)F)c2)cc1)C(=O)O [Example 107, N-(3-methyl-1-oxobutyl)-4-[[[3-[(1,4,5,6-tetrahydro-pyrimidin-2-yl)amino]-5-(trifluoromethyl)phenyl]-carbonyl]amino]phenylalanine, trifluoroacetate salt] | 1570 | 0.5 |  |  |
| Cc1cc(C)c(S(=O)(=O)NC(Cc2ccc(NC(=O)c3cccc(NC(=N)N)c3)cc2)C(=O)O)c(C)c1 (stereo not shown) [Example 121, trifluoroacetate salt] | 2 |  | 1 |  |
| NC(=O)Nc1cccc(C(=O)Nc2ccc(CCC(=O)O)cc2)c1 [Example 24, 4-[[[3-[(aminocarbonyl)amino]phenyl]carbonyl]amino]benzenepropanoic acid] | 4530 | 1220 |  |  |
| O=C(O)CCc1ccc(NC(=O)c2cccc(NC(=O)NCc3ccccc3)c2)cc1 [Example 28, 4-[[[3-[[[(phenylmethyl)amino]carbonyl]amino]phenyl]carbonyl]amino]benzenepropanoic acid] | 10100 | 555 |  |  |
| N=C(N)Nc1cccc(S(=O)(=O)Nc2ccc(CCC(=O)O)cc2)c1 [Example 62, 4-[[[3-[(aminoiminomethyl)amino]phenyl]sulfonyl]amino]benzenepropanoic acid, trifluoroacetate salt] | 14800 | 28100 |  |  |
| NC(N)=Nc1cccc(C(=O)Nc2ccc(CCC(=O)O)c(C(=O)O)c2)c1 [Example 101A, 4-[[[3-[(aminoiminomethyl)amino]phenyl]carbonyl]-amino]-2-carboxybenzenepropanoic acid, bis(trifluoroacetate) salt] | 57 | 9 |  |  |
| N#CN=C(NCc1ccccc1)Nc1cccc(C(=O)Nc2ccc(CCC(=O)O)cc2)c1 [Example 79, 4-[[[3-[[(cyanoimino)[(phenylmethyl)-amino]methyl]amino]phenyl]carbonyl]amino]-benzenepropanoic acid] | 10200 | 2290 |  |  |
| COc1cc(NC(=O)c2cccc(NC(=N)N)c2)ccc1CCC(=O)O [Example 115, 4-[[[3-(aminoiminomethyl)amino]phenyl]-carbonyl]amino]-2-methoxybenzenepropanoic acid, trifluoroacetate salt] | 173 | 24 |  |  |
| CC(C)CC(=O)NC(Cc1ccc(NC(=O)c2cccc(NC(=N)N)c2)cc1)C(=O)O (stereo not shown) [Example 106, 4-[[[3-[(aminoiminomethyl]amino]phenyl]-carbonyl]amino]-N-[(3-methyl-1-oxobutyl)-phenylalanine, bis(trifluoroacetate) salt] | 77 |  |  | 5 |
| CS(=O)(=O)NC(Cc1ccc(NC(=O)c2cccc(NC(=N)N)c2)cc1)C(=O)O (stereo not shown) [Example 48, trifluoroacetate salt] | 15.6 | 0.63 |  |  |
| N=C(N)Nc1cccc(C(=O)NCc2ccc(CCC(=O)O)cc2)c1 [Example 29, 4-[[[[3-[(aminoiminomethyl)amino]phenyl]carbonyl]amino]methyl]benzenepropanoic acid, trifluoroacetate salt] | 1280 | 4000 |  |  |
| CCOC(=O)NC(Cc1ccc(NC(=O)c2cccc(NC(=N)N)c2)cc1)C(=O)O (stereo not shown) [Example 49, trifluoroacetate salt] | 31.4 | 1.1 |  |  |
| CC(CC(=O)O)c1ccc(NC(=O)c2cccc(NC(=N)N)c2)cc1 (stereo not drawn) [Example 31, 4-[[[3-[(aminoiminomethyl)amino]phenyl]. carbonyl]amino]-β-methylbenzenepropanoic acid, trifluoroacetate salt] | 66.5 | 114 |  |  |
